This is an account of results in US20230321181A1, “COMPOSITION FOR PREVENTION, IMPROVEMENT OR TREATMENT OF ALLERGIC DISEASE OR ITCHING COMPRISING PENTAPEPTIDE AS ACTIVE INGREDIENT” (CAREGEN CO, LTD., priority 2020, published 2023).

Series [1] has as its system mouse splenocytes. As to the kind of experiment: Expression of inflammation-related cytokines in splenocytes (RT-PCR). It counts as cell-based. The conditions noted are these: TNF-α induced, 30 minutes, vs control (NC). The method, then:
In order to confirm the effect of inhibiting allergic inflammatory response and improving atopic dermatitis by the pentapeptide of the present invention, the expression pattern of inflammation-related cytokines was confirmed using mouse splenocytes.
Specifically, after separating mouse splenocytes, the cells were inoculated into a 24-well plate at a density of 1×10^7 cells/well, and then cultured overnight at a 37° C., 5% CO2 incubator. After changing the medium to a serum-free medium, 4 hours later, the pentapeptide of the present invention and TNF-α were treated and cultured for 30 minutes. At this time, 20 μg/mL of ketotifen was used as a positive control.
After recovering the cells and then isolating RNA, cDNA was synthesized using a cDNA synthesis kit (Intron, Korea). A polymerase chain reaction was performed using the synthesized cDNA, PCR premix (Intron, Korea) and TNF-α, IL-113 and COX-2 primers, and the amplified PCR product was electrophoresed on an agarose gel to confirm a DNA band. The primer sequences used at this time are as shown in [Table 2].

The nature of series [2]: High temperature stability during long-term storage at 45° C. (HPLC). It counts as physicochemical. The conditions noted are these: 1000 ppm in sterile distilled water, 7 to 75 days. On the procedure: The peptide of the present invention consisting of the amino acid sequence of SEQ ID NO: 1 was dissolved in sterile distilled water at a concentration of 1000 ppm, stored at 45° C. for 7 days, 14 days, 28 days, 60 days and 75 days, followed by HPLC analysis.

Series [3] is described as follows: High temperature stability at 121° C. (HPLC). It counts as physicochemical. The following applies: 1000 ppm in sterile distilled water, 15 and 30 minutes. The method, then:
The peptide of the present invention was dissolved in sterile distilled water at a concentration of 1000 ppm, heated at 121° C. for 15 minutes and 30 minutes, followed by HPLC analysis.

The test system of series [4] is mast cells (rat basophilic leukemia cell line, RBL-2H3). Nature of the series: Degranulation (β-hexosaminidase release) in DNP-IgE/DNP-HSA stimulated mast cells. The following applies: 10 μM or 100 μM, 30 min pretreatment, DNP-IgE sensitized, DNP-HSA 3 hours, vs control (NC). It counts as cell-based. The method, then: In order to confirm the effect of inhibiting allergic inflammatory response and improving atopic dermatitis by the pentapeptide of the present invention, the degree of degranulation was confirmed using mast cells (rat basophilic leukemia cell line, RBL-2H3).
Specifically, RBL-2H3 cells were inoculated into a 12-well plate at a density of 5×10^5 cells/well, and then cultured overnight at a 37° C., 5% CO2 incubator. Then, the cells were sensitized by adding DNP-IgE to a complete medium. After 3 hours, it was washed 3 times with DPBS and then PIPES buffer was added thereto. In addition, an immune response was induced by pretreatment with the pentapeptide of the present invention synthesized in Example 1 for 30 minutes and then with DNP-HSA for 3 hours. After that, 25 μL of the supernatant was recovered, 25 μL of the substrate solution (5 mM p-nitrophenyl-N-acetyl-β-D-glucosaminide dissolved in 0.2 M sodium citrate buffer, pH 4.5) was added thereto, and then incubated at 37° C. for 90 minutes to react. After the reaction, 200 μL of stop solution (0.1 M Na2CO3/NaHCO3, pH 10.0) was added to each well to stop the enzymatic reaction, and absorbance was measured at 405 nm using a microplate reader. β-hexosamidase secreted from the supernatant was quantified according to Equation 1 below after adding 0.5% Triton X-100 solution to the cells. […]

Series [5] shares this test system. As to the kind of experiment: Expression of inflammation-related cytokines in mast cells (RT-PCR). The following applies: RBL-2H3, DNP-IgE sensitized, DNP-HSA 2 hours, vs control (NC). It counts as cell-based. On the procedure:
In order to confirm the effect of inhibiting allergic inflammatory response and improving atopic dermatitis by the pentapeptide of the present invention, the expression pattern of inflammation-related cytokines was confirmed using mast cells (rat basophilic leukemia cell line, RBL-2H3).
Specifically, RBL-2H3 cells were inoculated into a 12-well plate at a density of 5×10^5 cells/well, and then cultured overnight at a 37° C., 5% CO2 incubator. Then, the cells were sensitized by adding DNP-IgE to a complete medium. After 3 hours, it was washed 3 times with DPBS and then PIPES buffer was added thereto. In addition, an immune response was induced by pretreatment with the pentapeptide of the present invention synthesized in Example 1 for 30 minutes and then with DNP-HSA for 2 hours. At this time, 20 μg/mL of ketotifen was used as a positive control.
After recovering the cells and then isolating RNA, cDNA was synthesized from the isolated RNA using a cDNA synthesis kit (Intron, Korea). A polymerase chain reaction was performed using the synthesized cDNA, PCR premix (Intron, Korea) and IL-3, IL-4, and TNF-α primers, and the amplified PCR product was electrophoresed on an agarose gel to confirm a DNA band. The primer sequences used at this time are as shown in [Table 1].

On to “KFLIK (Pentapeptide) [pentapeptide of the present invention]”, for which, in series [1], the “expression of COX-2” value is given as “significantly reduced”, the “expression of IL-1β” value is on record as “significantly reduced” and the “expression of TNF-α” value is given as “significantly reduced”. In series [2], the “high-temperature stability during long-term storage” value was “maintained stability for 75 days”. Further, the “high-temperature stability at maximum heating temperature” value in series [3] is on record as “maintained stability for 30 minutes”. The “release amount of β-hexosamidase” value in series [4] is recorded as “decreased in a concentration-dependent manner”. In addition, in series [5], the “expression of IL-3” value is recorded as “significantly reduced”, the “expression of IL-4” value is given as “significantly reduced” and the “expression of TNF-α” value is listed as “significantly reduced”.
